From patent publication US20220096411A1, “COMBINING METABOLIC STIMULATION AND AMINO ACIDS TO SENSITIZE TOLERANT BACTERIA TO ANTIBIOTICS” (priority 2019, published 2022)

Key:
[1] = test system: E. coli genetic knockout ΔdadA; test: Ampicillin sensitization of knockout strain unable to catabolize D-alanine into pyruvate; assay type: cell-based, Escherichia coli; conditions: FIG. 2A; for sensitivity of tolerant ΔdadA bacteria to ampicillin on amino acid supplementation alone: no pyruvate; for potentiation of ampicillin sensitivity of ΔdadA strain by amino acid: strain supplemented with pyruvate
[2] = test system: Escherichia coli K12 strain MG1655; test: MIC determination (metabolite-enabled MIC from optical density dose-response); assay type: cell-based; conditions: for change of ampicillin MIC on amino acid supplementation: across all tested growth-supporting metabolites (carbon sources), FIG. 2B; for metabolite-enabled MIC of β-lactams upon metabolite supplementation: ampicillin, carbenicillin, mecillinam, penicillin, 1% LB; for metabolite-enabled MIC of β-lactams upon metabolite supplementation / metabolite-enabled MIC, D-isomer compared with L-isomer: metabolite 10 mM; for metabolite-enabled MIC, D-isomer compared with L-isomer: β-lactams of FIG. 1B; for potentiation of the antibiotic by D-amino acids: with pyruvate (FIG. 2E) or without metabolic stimulant (FIG. 2F), ampicillin potentiated, comparators D-cycloserine, ciprofloxacin, gentamicin are the non-β-lactams
[3] = test system: Escherichia coli K12 strain MG1655; test: Killing assay (CFU) of tolerant stationary phase cultures; assay type: cell-based; conditions: for ability of individual carbon source to restore β-lactam antibiotic sensitivity (CFU/mL): tolerant cultures grown in 100% LB medium, FIG. 5
[4] = test system: clinical isolate of Escherichia coli (isolate DICON-146); test: Killing assay, ampicillin-resistant ESBL clinical isolate in stationary phase; assay type: cell-based; conditions: D-methionine added on top of sulbactam and pyruvate; FIG. 3C
[5] = test system: Escherichia coli K12 strain MG1655; assay type: cell-based

## C[C@H](N)C(=O)O [L-alanine]
[1]
  sensitivity of tolerant ΔdadA bacteria to ampicillin on amino acid supplementation alone: equally insensitive to ampicillin
  potentiation of ampicillin sensitivity of ΔdadA strain by amino acid: no such potentiation was observed
[2]
  change of ampicillin MIC on amino acid supplementation: did not

## O=C(O)[C@H](O)[C@@H](O)[C@H](O)[C@H](O)CO [gluconate]
[3]
  ability of individual carbon source to restore β-lactam antibiotic sensitivity (CFU/mL): varying abilities to restore β-lactam antibiotic sensitivity

## CCN1CCN(C(=O)N[C@@H](C(=O)N[C@@H]2C(=O)N3[C@@H]2SC(C)(C)[C@@H]3C(=O)O)c2ccccc2)C(=O)C1=O [piperacillin, reference compound]
[3]; metabolic stimulation by pyruvate and potentiation by D-amino acids, FIG. 2G
  sensitization of tolerant bacteria to the antibiotic: sensitized tolerant bacteria

## CC1(C)[C@H](C(=O)O)N2C(=O)C[C@H]2S1(=O)=O [sulbactam, reference compound]
[4]
  restoration of ampicillin sensitivity of resistant (ESBL) E. coli in stationary phase: unable to restore sensitivity to ampicillin

## O=C(CO)[C@@H](O)[C@H](O)[C@H](O)CO [fructose]
[3]
  ability of individual carbon source to restore β-lactam antibiotic sensitivity (CFU/mL): varying abilities to restore β-lactam antibiotic sensitivity

## O=C(O)[C@H]1CCCN1 [D-proline]
[2]; cultures sensitized with pyruvate, alanine pair in dadA mutant, FIG. 2C
  change of ampicillin MIC, D-amino acid compared with L-isomer: less robust than for other D-amino acids

## O=C[C@H](O)[C@@H](O)[C@H](O)CO [xylose]
[3]
  ability of individual carbon source to restore β-lactam antibiotic sensitivity (CFU/mL): varying abilities to restore β-lactam antibiotic sensitivity
[5]; cultures grown in 1% LB medium, 10 mM, no antibiotic, FIG. 7A right
  effect of carbon source on growth and population density (CFU): did stimulate growth and an increase in population density
[5]; cultures grown in 100% LB medium, 10 mM, no antibiotic, FIG. 7A left
  effect of carbon source on population density (CFU): did not lead to an increase in population density

## N[C@H](CO)C(=O)O [D-serine]
[2]; FIG. 1B
  metabolite-enabled MIC of β-lactams upon metabolite supplementation: lowest observed MICs
[2]
  metabolite-enabled MIC, D-isomer compared with L-isomer: outperformed their corresponding L-isomers

## OC[C@@H](O)[C@@H](O)[C@H](O)[C@H](O)CO [mannitol]
[3]
  ability of individual carbon source to restore β-lactam antibiotic sensitivity (CFU/mL): varying abilities to restore β-lactam antibiotic sensitivity

## CC1(C)S[C@@H]2[C@H](NC(=O)[C@H](N)c3ccccc3)C(=O)N2[C@H]1C(=O)O [ampicillin, reference compound]
[3]; 24 hour treatment with 1 mg/ml ampicillin, cultures grown in LB 24 hours, FIG. 1A
  killing of stationary phase cultures by the antibiotic alone: not killed
[2]
  potentiation of the antibiotic by D-amino acids: specific to β-lactam antibiotics

## gentamicin [reference compound]
[2]
  potentiation of the antibiotic by D-amino acids: specific to β-lactam antibiotics

## C[C@@H](N)C(=O)O [D-alanine]
[1]
  sensitivity of tolerant ΔdadA bacteria to ampicillin on amino acid supplementation alone: equally insensitive to ampicillin
  potentiation of ampicillin sensitivity of ΔdadA strain by amino acid: potentiate sensitivity to ampicillin
[3]; cultures treated with ampicillin and metabolite, FIG. 1A
  performance of metabolite in sensitizing cultures to ampicillin (CFU confirmed cell death): strong
[2]
  change of ampicillin MIC on amino acid supplementation: consistently lowered the ampicillin MIC
  metabolite-enabled MIC, D-isomer compared with L-isomer: outperformed their corresponding L-isomers
[2]; FIG. 1B
  metabolite-enabled MIC of β-lactams upon metabolite supplementation: lowest observed MICs

## OCC(O)CO [glycerol]
[3]
  ability of individual carbon source to restore β-lactam antibiotic sensitivity (CFU/mL): varying abilities to restore β-lactam antibiotic sensitivity

## CSCC[C@@H](N)C(=O)O [D-methionine]
[3]; MOPS-rich medium, D-methionine added on top of pyruvate, FIG. 3A
  sensitization of stationary phase MG1655 to ampicillin in MOPS-rich medium: further potentiated ampicillin
[4]
  restoration of ampicillin sensitivity of resistant (ESBL) E. coli in stationary phase: further potentiated killing by lower drug concentrations
[2]; FIG. 1B, FIG. 2C
  observed effect size of D-amino acid on β-lactam MIC: larger than for D-alanine
[5]; used alone or in combination with xylose, FIG. 7B
  effect of D-methionine on population density (CFU): did not increase population density

## N[C@@H]1CONC1=O [D-cycloserine, reference compound]
[2]
  potentiation of the antibiotic by D-amino acids: specific to β-lactam antibiotics

## O=C[C@@H](O)[C@H](O)[C@H](O)CO [arabinose]
[3]
  ability of individual carbon source to restore β-lactam antibiotic sensitivity (CFU/mL): varying abilities to restore β-lactam antibiotic sensitivity
